Measured values from patent publication US20100086931A1, “METHOD FOR ASSAYING ACTION OF ANTITUMOR AGENT USING DECREASE IN GENE EXPRESSION LEVEL AS INDEX” (Eisai R&D Management Co., Ltd., priority 2007, published 2010).

Tested on: human colon carcinoma cell strain WiDr
Experiment: Microarray analysis (Human Genome U133 plus 2.0 array) of mRNA expression in WiDr cells treated with compound A
Format: cell-based
Settings: 2.8 nM, 6 h, ratio to control
Procedure: Microarray analysis (Human Genome U133 plus 2.0 array: Affymetrix) was carried out using RNA purified from human colon carcinoma cell strain WiDr treated with 2.8 nM and 14 nM of (8E,12E,14E)-7-((4-Cycloheptylpiperazin-1-yl)carbonyl)oxy-3,6,16,21-tetrahydroxy-6,10,12,16,20-pentamethyl-18,19-epoxytricosa-8,12,14-trien-11-olide (hereinafter also referred to as “compound A”) for six hours.
WiDr cells were first suspended in RPMI1640 medium (containing 10% FBS, penicillin, and streptomycin) and seeded in a 10 cm dish (2×10^6 cells/dish). After an overnight culture in an incubator with 5% carbon dioxide gas at 37° C., the medium was changed with medium containing 2.8 nM and 14 nM of compound A or containing vehicle alone. After cultured additional six hours, TRI reagent (SIGMA) was added to cells, and the cells were harvested. RNA was purified in accordance with the protocol of TRI reagent, followed by further purification with RNeasy (QIAGEN). Absorbance at 260 nm was measured to quantify an amount of RNA.
Subsequently, single stranded cDNA synthesis, double stranded cDNA synthesis, biotin-labeled cRNA synthesis, and cRNA fragmentation in order were carried out from 5-10 μg (WiDr 10 μg, PBMC 5 μg) of total RNA from the control cells and the treated cells, by using One-Cycle Target Labeling and Control Reagents (Affymetrix). cRNA probe was used for hybridization with Human Genome U133 Plus 2.0 Array (Affymetrix). The array was then washed and stained, and luminescence intensity was measured by a scanner.
The RMA method was applied to 33 of .cel files obtained in the microarray experiment and log signal intensity at a gene level normalized with log signal intensity at a probe level was obtained. By subtracting the mean between control 1 and control 3 from the mean between log signal intensity 1 and log signal intensity 3 for each case, the log signal intensity was converted into a log signal ratio to the control. A t-test was conducted between each log signal intensity and control, and candidate genes were narrowed down in the basis of a p-value, a log signal ratio, and a signal value. Specifically, genes showing that the P value was 5% or less; the expression level in the untreated (control) is 100 or more by signal value; and the expression level when treated with both 2.8 nM and 14 nM of compound A is, compared to the control, 25% or less, were picked out. The software used is R2.2.1 (http://www.r-project.org/), affy package 1.8.1 (http://www.bioconductor.org).
Genes showing that, by the treatment with compound A, the P value was 5% or less; the expression level in the untreated (control) is 100 or more by signal value; and the expression level when treated with both 2.8 nM and 14 nM of compound A is, compared to the control, 25% or less, and results thereof were shown in Table 1. Probe ID used in Table 1 represents Human Genome U133 Plus 2.0 Array Probeset ID. In Table 1, for each gene evaluated, gene name (Gene Name), abbreviated name (Gene Symbol), accession number (Accession), alias name (Synonym), Probe set number in Human Genome U133 Plus 2.0 Array (Human Genome U133 Plus 2.0 Array Probeset ID), the expression level upon the six-hour treatment with 2.8 nM of E7107 (2.8 nM (6 h)), and the expression level upon the six-hour treatment with 14 nM of E7107 (14 nM (6 h)) were respectively shown.

SMILES: CCC(O)C(C)C1OC1CC(C)(O)/C=C/C=C(\C)C1OC(=O)CC(O)CCC(C)(O)C(OC(=O)N2CCN(C3CCCCCC3)CC2)/C=C/C1C (stereo not drawn) [E7107, (8E,12E,14E)-7-((4-Cycloheptylpiperazin-1-yl)carbonyl)oxy-3,6,16,21-tetrahydroxy-6,10,12,16,20-pentamethyl-18,19-epoxytricosa-8,12,14-trien-11-olide]
- ADPRHL2 mRNA expression level (223097_at): 0.23
- ANGEL2 mRNA expression level (221825_at): 0.22
- ARMC8 mRNA expression level (203486_s_at): 0.20
- ATP2A2 mRNA expression level (212361_s_at): 0.24
- ATP2B1 mRNA expression level (212930_at): 0.20
- ATP6V0A2 mRNA expression level (205704_s_at): 0.17
- BPTF mRNA expression level (232909_s_at): 0.20
- C1orf63 mRNA expression level (209006_s_at): 0.15
- C1orf79 mRNA expression level (223774_at): 0.16
- C1orf82 mRNA expression level (222893_s_at): 0.20
- C5orf28 mRNA expression level (219029_at): 0.20
- C6orf136 mRNA expression level (227455_at): 0.23
- C7orf23 mRNA expression level (204215_at): 0.12
- C7orf36 mRNA expression level (223433_at): 0.16
- C7orf49 mRNA expression level (220949_s_at): 0.20
- C12orf32 mRNA expression level (225837_at): 0.19
- C15orf40 mRNA expression level (1552310_at): 0.17
- C17orf80 mRNA expression level (223351_at): 0.22
- C20orf112 mRNA expression level (225224_at): 0.24
- CARD10 mRNA expression level (210026_s_at): 0.23
- CASC5 mRNA expression level (228323_at): 0.24
- CCDC14 mRNA expression level (225017_at): 0.21
- CCNE2 mRNA expression level (205034_at): 0.22
- CDC6 mRNA expression level (203967_at): 0.13
- CDC7 mRNA expression level (204510_at): 0.18
- CDNA FLJ34214 fis, clone FCBBF3021807 mRNA expression level (227087_at): 0.24
- CLDND1 mRNA expression level (208925_at): 0.16
- CLIP1 mRNA expression level (201975_at): 0.24
- DAPK1 mRNA expression level (203139_at): 0.09
- DNAJC16 mRNA expression level (212908_at): 0.24
- E2F7 mRNA expression level (228033_at): 0.22
- EHBP1 mRNA expression level (212653_s_at): 0.16
- ELL3 mRNA expression level (219518_s_at): 0.24
- ERCC3 mRNA expression level (202176_at): 0.25
- EVI1 mRNA expression level (226420_at): 0.17
- FAM86C mRNA expression level (65585_at): 0.19
- FANCL mRNA expression level (218397_at): 0.15
- FBXL5 mRNA expression level (209004_s_at): 0.19
- FCHO2 mRNA expression level (228220_at): 0.24
- FGF19 mRNA expression level (223761_at): 0.10
- FKSG44 mRNA expression level (227964_at): 0.11
- FLJ20628 mRNA expression level (221229_s_at): 0.16
- FRY mRNA expression level (204072_s_at): 0.23
- Full-length cDNA clone CS0DL007YI24 of B cells (Ramos cell line) mRNA expression level (226648_at): 0.22
- GRHL1 mRNA expression level (222830_at): 0.24
- HDAC4 mRNA expression level (204225_at): 0.21
- INTS7 mRNA expression level (222250_s_at): 0.24
- IREB2 mRNA expression level (225892_at): 0.12
- IXL mRNA expression level (225708_at): 0.20
- JAGN1 mRNA expression level (223104_at): 0.15
- JUB mRNA expression level (225806_at): 0.25
- KCNE3 mRNA expression level (227647_at): 0.20
- KIAA0323 mRNA expression level (212355_at): 0.23
- KIAA0776 mRNA expression level (212633_at): 0.18
- KIAA0859 mRNA expression level (212405_s_at): 0.17
- KIF2C mRNA expression level (211519_s_at): 0.20
- KIF21A mRNA expression level (226003_at): 0.18
- KIN mRNA expression level (205664_at): 0.22
- KLHL12 mRNA expression level (225068_at): 0.20
- LIPG mRNA expression level (219181_at): 0.21
- LOC51315 mRNA expression level (218303_x_at): 0.11
- LOC124512 mRNA expression level (225808_at): 0.15
- MASTL mRNA expression level (228468_at): 0.23
- MCM10 mRNA expression level (220651_s_at): 0.11
- METTL3 mRNA expression level (209265_s_at): 0.24
- METTL4 mRNA expression level (219698_s_at): 0.22
- MKRN1 mRNA expression level (201285_at): 0.20
- MLL2 mRNA expression level (227527_at): 0.21
- MND1 mRNA expression level (223700_at): 0.17
- MYOHD1 mRNA expression level (225947_at): 0.20
- NCOA5 mRNA expression level (225145_at): 0.20
- NIN mRNA expression level (225921_at): 0.22
- NOC3L mRNA expression level (218889_at): 0.23
- NPC1 mRNA expression level (202679_at): 0.24
- NR2C1 mRNA expression level (204791_at): 0.15
- NUPL1 mRNA expression level (223984_s_at): 0.12
- NUPL2 mRNA expression level (204003_s_at): 0.21
- ORC5L mRNA expression level (204957_at): 0.23
- PAXIP1 mRNA expression level (212825_at): 0.23
- PCGF1 mRNA expression level (210023_s_at): 0.21
- PHACTR4 mRNA expression level (226823_at): 0.25
- PHF20L1 mRNA expression level (226942_at): 0.24
- PIK3C3 mRNA expression level (204297_at): 0.23
- PLEKHA5 mRNA expression level (220952_s_at): 0.16
- PMS1 mRNA expression level (213677_s_at): 0.22
- POLD3 mRNA expression level (212836_at): 0.16
- POLR3E mRNA expression level (222490_at): 0.18
- PPM1B mRNA expression level (209296_at): 0.24
- PPWD1 mRNA expression level (213483_at): 0.21
- RAD54B mRNA expression level (219494_at): 0.18
- RBBP6 mRNA expression level (212783_at): 0.17
- RBM17 mRNA expression level (224780_at): 0.21
- RBMS1 mRNA expression level (209868_s_at): 0.17
- REPS1 mRNA expression level (224366_s_at): 0.22
- RFC4 mRNA expression level (204023_at): 0.13
- RIF1 mRNA expression level (226821_at): 0.13
- RPS6KC1 mRNA expression level (218909_at): 0.23
- SFXN1 mRNA expression level (230069_at): 0.17
- SHPRH mRNA expression level (226366_at): 0.19
- SLC17A5 mRNA expression level (223441_at): 0.24
- SLC25A19 mRNA expression level (223222_at): 0.25
- SLC37A1 mRNA expression level (218928_s_at): 0.22
- SMEK2 mRNA expression level (226230_at): 0.19
- SMUG1 mRNA expression level (218685_s_at): 0.24
- STAMBPL1 mRNA expression level (227606_s_at): 0.19
- STXBP3 mRNA expression level (203310_at): 0.19
- SYTL2 mRNA expression level (232914_s_at): 0.18
- TAF4 mRNA expression level (213090_s_at): 0.21
- TMEM177 mRNA expression level (218897_at): 0.24
- TNS3 mRNA expression level (217853_at): 0.20
- TRIM31 mRNA expression level (210159_s_at): 0.25
- TRIP4 mRNA expression level (203732_at): 0.21
- TSEN2 mRNA expression level (219581_at): 0.13
- TTC4 mRNA expression level (46167_at): 0.22
- TUBGCP3 mRNA expression level (203690_at): 0.16
- Transcribed locus mRNA expression level (230098_at): 0.17
- Transcribed locus mRNA expression level (230177_at): 0.18
- Transcribed locus mRNA expression level (235609_at): 0.21
- Transcribed locus, moderately similar to XP_518244.1 mRNA expression level (235046_at): 0.11
- Transcribed locus, strongly similar to NP_002194.1 integrin alpha 2 precursor mRNA expression level (227314_at): 0.24
- Transcribed locus, strongly similar to NP_689873.1 mRNA expression level (228638_at): 0.16
- UNC50 mRNA expression level (203583_at): 0.10
- WBP4 mRNA expression level (203598_s_at): 0.17
- WDR26 mRNA expression level (218107_at): 0.24
- WDR67 mRNA expression level (214061_at): 0.09
- ZC3HAV1L mRNA expression level (228280_at): 0.23
- ZCCHC6 mRNA expression level (220933_s_at): 0.18
- ZKSCAN1 mRNA expression level (214670_at): 0.21
- ZMIZ1 mRNA expression level (212124_at): 0.16
- ZNF518 mRNA expression level (204291_at): 0.18
- mRNA expression level, probeset 228106_at (gene name not given): 0.21
- mRNA expression level, probeset 235436_at (gene name not given): 0.21
